Legend:
P-eIF2-α = assay: eIF2-α phosphorylation (P-eIF2-α) immunoblot in DCs; type: cell-based, mouse; conditions: for eIF2-α phosphorylation in presence of soluble poly I:C: DCs activated with soluble poly I:C 24 h, 75 μM salubrinal for the last 4 h
Protocol: (§1) Bone marrow-derived DCs were obtained and cultured as described previously^50. NIH3T3 cells were cultured in RPMI 1640 (GIBCO) supplemented with 10% FCS (HyClone, PERBIO), 100 units/ml penicillin and 100 μg/ml streptomycin (GIBCO). Wild-type and PKR^−/− MEFs (from Caetano Reis e Sousa) were cultured in DMEM, 10% FCS, pen/strep. Wild-type and GCN2^−/− MEFs (from David Ron) were cultured in RPMI, 10% FCS, pen/strep, MEM non-essential amino acids (GIBCO), 55 μM beta-mercaptoethanol. For the tryptophan starvation experiments, MEFs and DCs were cultured for the indicated time in RPMI 1640 Tryptophan—medium (21875, GIBCO). All cells were cultured at 37° C. and 5% CO2.
(§2) MEFs, NIH3T3 and immature DCs were treated for the indicated time with 10 μg/ml poly I:C (InvivoGen), alone or in combination with lipofectamine 2000 (Invitrogen). 2 μg/ml tunicamycin (SIGMA) was added to DCs for 2 h; 2 μM MG132 (BIOMOL International) was added to DCs and NIH3T3 4 h before harvesting; 75 μM salubrinal (Calbiochem) or 100 nM tautomycin (Calbiochem) were added to DCs 4 h before harvesting; 500 μM sodium arsenite (SIGMA) was added for 30 min to DCs, NIH3T3 and MEFs; 50 μM LY294002 (Calbiochem) was added to DCs 1 h before harvesting. Immature DCs were treated for the indicated time with 100 ng/ml LPS (SIGMA).
(§3) Cells were lysed in 1% Triton X-100, 50 mM Hepes, 10 mM NaCl, 2.5 mM MgCl2, 2 mM EDTA, 10% glycerol, 1 mM PMSF, supplemented with Complete Mini Protease Inhibitor Cocktail Tablets (Roche). Protein quantification was performed using the BCA Protein Assay (Pierce). 25-50 μg of Triton X-100-soluble material were loaded on 2%-12% gradient SDS-PAGE before immunoblotting and chemiluminescence detection (SuperSignal West Pico Chemiluminescent Substrate, Pierce). Nuclear extraction was performed using the Nuclear Complex Co-IP kit (Active Motif). Rabbit polyclonal antibodies against ATF4 (CREB-2, C-20) and eIF2α (FL-315) were from Santa Cruz Biotechnology, as well as mouse monoclonal against GADD34 (C-19) and PKR (B-10). Rabbit polyclonal antibodies against P-eIF2α (Ser 51) and caspase-3 were from BioSource and Cell Signaling Technology respectively. Mouse monoclonal antibodies against β-actin and histone H1 were from SIGMA and Upstate respectively. Secondary antibodies were from Jackson ImmunoResearch Laboratories. Quantification of eIF2α phosphorylation was performed using the Multi Gauge software (Fujifilm).

IFN-β = IFN-β ELISA in culture supernatant of activated DCs; type: cell-based, mouse; conditions: poly I:C (or LPS) 8 h, salubrinal added 2 h before stimulation
Protocol: (§4) […] Immature DCs were treated for the indicated time with 100 ng/ml LPS (SIGMA).
IFN-β quantification in culture supernatant of DCs (5 fold-diluted) was performed using the Mouse Interferon Beta ELISA kit (PBL InterferonSource) according to manufacturer instructions.

DCs [1] = assay: Translation intensity measurement by puromycin labelling in DCs; type: cell-based, mouse
Protocol: as §2, with “[…];” for “75 μM salubrinal (Calbiochem) or 100 nM tautomycin (Calbiochem) were added to DCs 4 h before harvesting;”
Puromycin labelling for measuring the intensity of translation was performed using 10 μg/ml puromycin (SIGMA, min 98% TLC, cell culture tested, P8833, diluted in PBS) was added in the culture medium and the cells were incubated for 10 min at 37° C. and 5% CO2. Where indicated, 25 μM cycloheximide (SIGMA) was added 5 min before puromycin. Cells were then harvested, centrifugated at 4° C. and washed with cold PBS prior to cell lysis and immunoblotting with the 12D10 antibody.
Cells were lysed in 1% Triton X-100, 50 mM Hepes, 10 mM NaCl, 2.5 mM MgCl2, 2 mM EDTA, 10% glycerol, 1 mM PMSF, supplemented with Complete Mini Protease Inhibitor Cocktail Tablets (Roche). Protein quantification was performed using the BCA Protein Assay (Pierce). […] Quantification of eIF2α phosphorylation was performed using the Multi Gauge software (Fujifilm).

caspase-3 = assay: Caspase-3 level and cleavage by immunoblot in DCs; type: cell-based, mouse
Protocol: as §4, §3

ATF4 = ATF4 protein immunoblot in nuclear extract of DCs; type: cell-based, mouse; conditions: poly I:C, 8 h
Protocol: as §2
Cells were lysed in 1% Triton X-100, 50 mM Hepes, 10 mM NaCl, 2.5 mM MgCl2, 2 mM EDTA, 10% glycerol, 1 mM PMSF, supplemented with Complete Mini Protease Inhibitor Cocktail Tablets (Roche). Protein quantification was performed using the BCA Protein Assay (Pierce). 25-50 μg of Triton X-100-soluble material were loaded on 2%-12% gradient SDS-PAGE before immunoblotting and chemiluminescence detection (SuperSignal West Pico Chemiluminescent Substrate, Pierce). Nuclear extraction was performed using the Nuclear Complex Co-IP kit (Active Motif). […] Quantification of eIF2α phosphorylation was performed using the Multi Gauge software (Fujifilm).

MEFs and NIH3T3 = assay: Translation monitoring in MEFs and NIH3T3 exposed to poly I:C; type: cell-based, mouse; conditions: lipofected poly I:C, within 4 to 8 hours
Protocol: as §1
as §2, with “(SIGMA). […]” for “(SIGMA).”

DCs [2] = assay: Stress granule formation in DCs (mRNA in situ hybridization, confocal microscopy); type: cell-based, mouse
DCs [3] = assay: mRNA quantification by real-time RT-PCR in poly I:C stimulated DCs; type: cell-based, mouse; conditions: qPCR
Protocol: as §2
Total RNA was isolated from DCs using the RNeasy miniprep kit (Qiagen). cDNA was synthesized from RNA samples using the Superscript II reverse transcriptase (Invitrogen). Quantitative real-time PCR was carried out in complete SYBR Green PCR buffer (PE Biosystem) by using 200 nM of each specific primer. A total of 20 μl of PCR mix was added to 5 μl of cDNA template, and the amplification was tracked via SYBR Green incorporation by using a Stratagene sequence detection system. cDNA concentration in each sample were normalized by using HPRT. A nontemplate control was also routinely performed. Primers used for gene amplification (designed with the Primer3 software) have been generated.

CHIKV = conditions: murine IFN-β added 3 h before infection, 10 MOI, GFP expression at 24 h

O=C(/C=C/c1ccccc1)NC(NC(=S)Nc1cccc2cccnc12)C(Cl)(Cl)Cl (centres unmarked) [salubrinal] was tested, and the “eIF2-α phosphorylation in presence of soluble poly I:C” value (P-eIF2-α) was “strongly accentuates eIF2-α phosphorylation”, the “eIF2-α phosphorylation in presence of soluble poly I:C” value (P-eIF2-α; listed as Salubrinal) was “considerably enhanced” and the eIF2-α phosphorylation (P-eIF2-α; DCs, salubrinal alone, 75 μM, 4 h before harvesting) was “induced eIF2-α phosphorylation”. The “IFN-β secretion by activated DCs” value (IFN-β) was “drastically reduced”, the “Protein synthesis in poly I:C stimulated DCs” value (DCs [1]; poly I:C 4 or 8 h, salubrinal added 2 h before stimulation) was “strongly reduced” and the “Caspase-3 levels and cleavage, salubrinal with poly I:C or LPS” value (caspase-3; DCs stimulated 8 h, salubrinal added 2 h before) was “lighter effect than salubrinal alone”. For the same molecule, the “Total levels of caspase-3 and its cleaved active product” value (caspase-3; DCs, salubrinal treatment alone) was “massive increase”.

CO[C@H]([C@H](O)CC(=O)[C@@H](C)[C@@H](O)CC[C@@H](C)[C@@H]1O[C@]2(CC[C@@H](C)[C@H](CC[C@H](C)C(C)=O)O2)CC[C@@H]1C)[C@H](OC(=O)C[C@@H](O)C1=C(C)C(=O)OC1=O)C(C)C [tautomycin] was tested, and the “eIF2-α phosphorylation (same experiments as with salubrinal)” value (P-eIF2-α; DCs, 100 nM tautomycin 4 h before harvesting, with or without poly I:C) was “confirmed”.

“polyinosinic:polycytidylic acid [poly I:C]” was tested, and the “P-eIF2-α levels during poly I:C stimulation” value (P-eIF2-α; DCs, soluble poly I:C time course) was “gradually reduced”, the “ATF4 translation (protein level)” value (ATF4) was “strongly up-regulated” and the “Translation in DCs exposed to lipofected poly I:C” value (DCs [1]; after 8 hours of exposure) was “translation was not inhibited”. For the same molecule, the “Translation in MEFs (wt) and NIH3T3” value (MEFs and NIH3T3) was “efficiently induced PKR-dependent translation arrest”, the “Proportion of DCs bearing stress granules upon activation” value (DCs [2]; DCs activated with poly I:C or LPS, 500 μM sodium arsenite for the last 30 min) was 15% and the “ATF4 mRNA expression increase” value (DCs [3]; 10 μg/ml poly I:C) was 2 folds. For the same molecule, the “CHOP mRNA expression increase” value (DCs [3]; 10 μg/ml poly I:C) was 8 folds, the “CReP mRNA expression” value (DCs [3]; poly I:C) was “induced only very modestly” and the “PP1 mRNA expression” value (DCs [3]; poly I:C) was “only modestly increased”. For the same molecule, the “Caspase-3 levels and cleavage, stimulus alone” value (caspase-3; DCs, 8 h, no salubrinal) was “little effect”.

For sodium arsenite, the “Proportion of DCs bearing stress granules” value (DCs [2]) was about 100%.

B1: IFN-β: murine interferon-β added to MEFs before CHIKV infection (protein, UniProt P01575 22-182, looked up)
Interferon beta: INYKQLQLQERTNIRKCQELLEQLNGKINLTYRADFKIPMEMTEKMQKSYTAFAIQEMLQNVFLVFRNNFSSTGWNETIVVRLLDELHQQTVFLKTVLEEKQEERLTWEMSSTALHLKSYYWRVQRYLKLMKYNSYAWMVVRAEIFRNFLIIRRLTRNFQN
With B1 the “CHIKV replication in WT and GADD34ΔC/ΔC MEFs” value (CHIKV) was “abrogation of viral replication”.

Reference: patent US11278543B2, “Inhibitors of the PP1/GADD34 complex for the treatment of a condition requiring an immunosuppressive activity” (INSERM, priority 2009, dated 2022)
